# Legend:
# glioblastoma tumour = experiment: Treatment of the glioblastoma patient; type: in vivo, human
# Method: The patient was treated with BCNU and the tumour was regressing within 2 weeks after the first administration of the drug.
# [1] = tested on: Glioblastoma multiforme 3D aggregates; experiment: CellTiter-Glo 3D Cell Viability Assay, glioblastoma drug sensitivity test; type: cell-based, human; conditions: BCNU 0.3, 0.03, 0.003 mg/ml, FIGS. 3 & 4
# Method: Toxicology assay: CellTiter-Glo® 3D Cell Viability Assay (Promega). The CellTiter-Glo® 3D Cell Viability Assay is a homogeneous, luminescent method to determine the number of viable cells in 3D cell culture based on quantitation of the ATP present, which is a marker for the presence of metabolically active cells.
# Aggregates were prepared in 96-well plates and cultures were incubated with the following agents: cisplatin, erlotinib, vinorelbine, and pemetrexed. […] Following 24, 48 h or 72 h incubation, cells were labelled using Annexin V-PI and analyzed by flow cytometry or analysed by Promega CellTiter-Glo® 3D Cell Viability Assay Kit (Luminescent) (ATP detection kit)(FIGS. 3 & 4).
# [2] = tested on: Glioblastoma multiforme 3D aggregates (Glioblastoma 1); experiment: Annexin V-PI flow cytometry of drug-treated Glioblastoma 1 3D aggregates; type: cell-based, human
# Method: Two, freshly resected, native samples reached the laboratory directly from the pathologist within 2 hours of surgery. The two samples were treated separately and were labelled as “Glioblastoma 1” and “Glioblastoma 2”. […] The samples were processed according to protocol and drug sensitivity tests were performed using the viable, Sample 1. Samples for DNA and RNA isolation were also stored at −80° C., leaving the opportunity open for additional sequencing or comparative gene expression studies. Traditional out-growth cultures were also prepared from Glioblastoma sample 1 showing the strong viability and proliferative ability of the cells (FIG. 1.). Annexin: Annexin V is used as a non-quantitative probe to detect cells that express phosphatidylserine (PS) on their cell surface, an event found in apoptosis as well as other forms of cell death. The assay combines annexin V staining of PS and PE membrane events with the staining of DNA in the cell nucleus with propidium iodide (PI) or 7-Aminoactinomycin D (AAD-7), distinguishing viable cells from apoptotic cells and necrotic cells. Detection was performed by flow cytometry or a fluorescence microscope. […] Erbitux (Cetuximab): 4.8 mg/ml; […] Erlotinib similarly to Cetuximab is an EGFR inhibitor (the two drugs are frequently used clinically together).
smiles,measurement,setting,value
"O=NN(CCCl)C(=O)NCCCl [BCNU, Carmustine]",time to tumour regressing after the first administration of the drug,glioblastoma tumour,≤ 2 weeks
same,sensitivity of the glioblastoma cells,[1],clearly confirmed sensitivity
N.N.[Cl][Pt][Cl] [Cisplatin],Annexin Pl++ Late apoptosis,[2]; 9 μg/m1,0.19%
same,Pl+ ratio within Annexin+ Non-viable,[2]; 9 μg/m1,0.44%
C#Cc1cccc(Nc2ncnc3cc(OCCOC)c(OCCOC)cc23)c1 [Erlotinib],Annexin Pl++ Late apoptosis,[2]; 1 μM,0.32%
same,Pl+ ratio within Annexin+ Non-viable,[2]; 1 μM,0.62%
Nc1nc2[nH]cc(CCc3ccc(C(=O)N[C@@H](CCC(=O)O)C(=O)O)cc3)c2c(=O)[nH]1 [Pemetrexed],Annexin Pl++ Late apoptosis,[2]; 1 μM,0.19%
same,Pl+ ratio within Annexin+ Non-viable,[2]; 1 μM,0.37%
CCC1=C[C@@H]2CN(C1)Cc1c([nH]c3ccccc13)[C@@](C(=O)OC)(c1cc3c(cc1OC)N(C)[C@H]1[C@@](O)(C(=O)OC)[C@H](OC(C)=O)[C@]4(CC)C=CCN5CC[C@]31[C@@H]54)C2 [Vinorelbine],Annexin Pl++ Late apoptosis,[2]; 20 nM,0.49%
same,Pl+ ratio within Annexin+ Non-viable,[2]; 20 nM,0.93%
same,Annexin Pl++ Late apoptosis,[2]; 50 nM,0.05%
same,Pl+ ratio within Annexin+ Non-viable,[2]; 50 nM,0.09%

# Reference: patent US20190128870A1, “Diagnostic Methods For Patient Specific Therapeutic Decision Making In Cancer Care” (Humeltis, priority 2016, published 2019)
